Source: patent US20040235900A1, “Antimicrobial oxazolifinones with improved pharmacokinetic profile and safety advantages” (priority 2002, published 2004)
≈ marks a conversion by molar mass, not a printed value.

Columns and labels:
[1] = Pharmacokinetic study, single oral dose in beagle dog; assay type: in vivo; settings: single oral dose 5 mg/kg p.o., Compound No. 4 and linezolid in 5% Tween, other compounds in cyclodextrin, serum; for concentration at 12 hr: read-out: C-12 hr; for AUC(0-t): read-out: AUC (0-24 hr)
Experimental: (§1) Oral (5 mg/kg) and intravenous (5 mg/kg bolus) pharmacokinetic studies were done in dog. Blood samples were collected at time points of 0, 0.08 (not for oral), 0.25, 0.50, 1.0, 1.5, 2.0, 3.0, 4.0, 5.0, 6.0, 8.0, 10.0, 12.0 and 24.0 hours. To facilitate i.v. dosing and collection of blood samples, the dogs were implanted with cannula in cephalic vein. Serum obtained from blood samples was used for HPLC-based analysis.
(§2) Serum samples were extracted by solid phase extraction technique using Water's OASIS HLB cartridges. An HPLC-Diode array detection system was used for analysis. Prepared samples were chromatographed on a YMC-AM reversed phase column (150×4.6 mm ID; 5 μm) using an isocratic mobile phase acetate buffer (50 mmol ammonium acetate pH 6.6) acetonitrile, 66:34% v/v (for a representative compound of the invention, 68:32% v/v for compound Nos. 30, 3, 7 and 11 of U.S. Pat. No. 5,668,286, and 75:25% v/v for linezolid) at a flow rate of 1 ml/min, measured at λmax 254 nm. Independently prepared analytical standards and quality control samples were analyzed with each set of unknown samples.
The pharmacokinetics of a representative compound of the invention following single oral dose administration of the compound in beagle dog is shown in Table 2.

[2] = Pharmacokinetic study, single I.V. bolus dose in beagle dog; assay type: in vivo; settings: iv, single I.V. bolus dose 15 mg/kg (table title), Compound No. 4 and linezolid in 5% Tween, other compounds in cyclodextrin, serum; for concentration at 12 hr: read-out: C-12 hr; for AUC(0-t): read-out: AUC (0-24 hr)
Experimental: as §1, with “Blood” for “Oral (5 mg/kg) and intravenous (5 mg/kg bolus) pharmacokinetic studies were done in dog. Blood”
as §2
The pharmacokinetics of a representative compound of the invention following single I.V. bolus dose administration of the compound in beagle dog is shown in Table 3.

[3] = system: Enterococcus faecalis ATCC 29212; test: In-vitro MIC test (agar dilution), E. faecalis; assay type: cell-based; settings: ATCC29212, Mueller Hinton agar, 24 hrs at 35° C., read-out: Minimum Inhibitory Concentrations (MIC) E. faecalis
Excerpt: (§3) The test methods used for verifying the antimicrobial action of compound within the scope of this invention are essentially the same as those described in PCT WO 95/25106, U.S. Pat. No. 5,668,286 and EP 0 750, 618 B1, with the difference that the strains of the organisms used for the MIC determinations in these patents and applications are Staphylococcus aureus ATCC 25923, Staphylococcus epidermidis ATCC 12828, Streptococcus pyogenes ATCC 19615.
(§4) The in-vitro MIC methods of test compounds were determined essentially as described in PCT WO 95/25106, U.S. Pat. No. 5,668,286 and EP 0 750 618 B1.
(§5) Overnight grown cultures of S. aureus organisms in Tryptic Soya broth were diluted in Mueller Hinton Broth to give optical density matching with MacFarland tube 0.5 standard. Cultures were further diluted 1:10 in Mueller Hinton broth. Using Denley's mutipoint inoculator, 10^4 cells were deposited on Mueller Hinton agar (Difco) containing range of 2 fold dilutions of test compounds. These plates were incubated for 24 hrs at 35° C. and MIC results recorded. MIC is defined as minimum drug concentration that inhibits test organisms. For determining MIC of test compounds against Streptococcus pneumoniae, Mueller Hinton agar containing 5% sheep blood was employed.

[4] = system: Methicillin Resistant Staphylococcus aureus MRSA-32; test: In-vitro MIC test (agar dilution), MRSA-32; assay type: cell-based; settings: Mueller Hinton agar, 24 hrs at 35° C.; for MIC: Staphylococcus aureus, MRSA, read-out: Minimum Inhibitory Concentrations (MIC) MRSA-32
Excerpt: as §3, §4, §5

[5] = system: Streptococcus pneumoniae ATCC 49619; test: In-vitro MIC test (agar dilution, 5% sheep blood), S. pneumoniae; assay type: cell-based; settings: ATCC49619, Mueller Hinton agar containing 5% sheep blood, read-out: Minimum Inhibitory Concentrations (MIC) S. pneumoniae
Excerpt: as §3, §4, §5

MRSA 32 = test: Murine assay procedure (systemic MRSA 32 infection, oral treatment); assay type: in vivo, swiss mice; settings: Staphylococcus aureus; oral administration, doses 1 hr and 4 hrs after infection; MRSA 32 infected mice; percentage survival on Day 7
Experimental: Oxazolidinone new chemical entities (NCEs) were evaluated for their in vivo efficacy in a murine infection caused by multi-drug resistant, methicillin resistant Staphylococcus aureus strain, referred to as MRSA 32, a clinical isolate obtained from a hospitalised patient. The procedure used for the murine assay is as follows:
Four weeks old swiss mice of 18-22 gm body weight were infected with MRSA 32 strain suspended in 5% Hog gastric Mucin. The infecting dose of bacteria was set at 1-2×10^8 CFU/animal. The infecting dose was administered in 0.5 ml volume injected into peritonial cavity of mice. The treatment with oxazolidinone NCEs was started one hour after infection by administering 100-200 μl of the suspensions of oxazolidinone compounds in 5% Tween 80 by oral gavage. A repeat dose was similarly administered 3 hrs later. Each oxazolidinone NCE was tested at 2-3 different dosages in the range of 2.5 mg/kg to 20 mg/kg. In each dose group 6 mice were included. As an infection control group 12 mice were infected with MRSA 32 strain without giving any treatment. Normally untreated infected mice die within 24 hrs. due to the systemic spread of infection through out the animal body. […] For compounds affording protection of MRSA infected mice, ED50 dosages were calculated on the basis of percentage survival on Day 7 after infection.
The in-vivo ED50 values using the test compounds were determined essentially by the method as described in PCT WO 95/25106, U.S. Pat. No. 5,668,286 and EP 0 750 618 B1.

melting point	MIC [3]	MIC [4]	MIC [5]	Structure (SMILES)	other results
180 to 182 °C	4 µg/mL (≈ 9.6 µM)	4 µg/mL (≈ 9.6 µM)	4 µg/mL (≈ 9.6 µM)	CCCC(C#N)C1CCN(c2ccc(N3C[C@H](CNC(C)=O)OC3=O)cc2F)CC1 (stereo partly drawn) [Compound 16, (S)-N-{3-[4-(4-(1-cyanobutyl)-piperidin-1-yl)-3-fluoro-phenyl]-2-oxo-oxazolidin-5-ylmethyl}-acetamide]	
223 to 225 °C	2 µg/mL (≈ 5.01 µM)	2 µg/mL (≈ 5.01 µM)	1 µg/mL (≈ 2.5 µM)	CC(=O)NC[C@H]1CN(c2ccc(N3CCC(C(C#N)C#N)CC3)c(F)c2)C(=O)O1 [Compound 19, (S)-N-{3-[4-(4-(1,1-dicyanomethyl)-piperidin-1-yl)-3-fluoro-phenyl]-2-oxo-oxazolidin-5-ylmethyl}-acetamide]	
148 to 149 °C	2 µg/mL (≈ 5.15 µM)	2 µg/mL (≈ 5.15 µM)	2 µg/mL (≈ 5.15 µM)	CC(=O)NC[C@H]1CN(c2ccc(N3CCC(CC#N)C(C)C3)c(F)c2)C(=O)O1 (stereo partly drawn) [Compound 12, (S)-N-{3-[4-((4-cyanomethyl)-3-methyl-piperidin-1-yl)-3-fluoro-phenyl]-2-oxo-oxazolidin-5-ylmethyl}-acetamide]	
198 to 200 °C				CC(=O)NC[C@H]1CN(c2ccc(N3CCC(C(C#N)C(=O)O)CC3)c(F)c2)C(=O)O1 (stereo partly drawn) [Compound 18, (S)-N-{3-[4-(4-(1-cyano-1-hydroxycarbonyl)-piperidin-1-yl)-3-fluoro-phenyl]-2-oxo-oxazolidin-5-ylmethyl}-acetamide]	
	2 µg/mL (≈ 5.61 µM)	2 µg/mL (≈ 5.61 µM)	2 µg/mL (≈ 5.61 µM)	CC(=O)NC[C@H]1CN(c2ccc(N3CCC(CC#N)CC3)cc2)C(=O)O1 [Compound 2, (S)-N-{3-[4-(4-cyanomethyl-piperidin-1-yl)-phenyl]-2-oxo-oxazolidin-5-ylmethyl}-acetamide]	ED50 (MRSA 32): 20 mg/kg

Second part, the compound before the results:

Structure (SMILES)	melting point	MIC [3]	MIC [4]	MIC [5]	other results
CC(=O)NC[C@H]1CN(c2ccc(N3CCC(=NO)CC3)c(F)c2)C(=O)O1 [U.S. Pat. No. 5,668,286 (No. 11), (S)-N-{3-[3-fluoro-4-(4-hydroxyimino-piperidin-1-yl)-phenyl]-2-oxo-oxazolidin-5-ylmethyl}-acetamide]					concentration at 12 hr [1]: 0 ng/mL; Cmax [2]: 4150 ng/mL; concentration at 12 hr [2]: 0 ng/mL; half-life [2]: 0.16 h; AUC(0-t) [2]: 1320 ng·h/mL
CCC(C#N)C1CCN(c2ccc(N3C[C@H](CNC(C)=O)OC3=O)cc2F)CC1 (stereo partly drawn) [Compound 15, (S)-N-{3-[4-(4-(1-cyanopropyl)-piperidin-1-yl)-3-fluoro-phenyl]-2-oxo-oxazolidin-5-ylmethyl}-acetamide]	185 to 186 °C	4 µg/mL (≈ 9.94 µM)	4 µg/mL (≈ 9.94 µM)	2 µg/mL (≈ 4.97 µM)	
CC(=O)NC[C@H]1CN(c2ccc(N3CCC(O)CC3)c(F)c2)C(=O)O1 [U.S. Pat. No. 5,668,286 (No. 3), (S)-N-{3-[3-fluoro-4-(4-hydroxy-piperidin-1-yl)-phenyl]-2-oxo-oxazolidin-5-ylmethyl}-acetamide]					half-life [1]: 1.37 h; AUC(0-t) [1]: 2740 ng·h/mL; Cmax [1]: 1520 ng/mL; concentration at 12 hr [1]: 0 ng/mL; Cmax [2]: 6190 ng/mL; concentration at 12 hr [2]: 0 ng/mL; half-life [2]: 0.98 h; AUC(0-t) [2]: 7530 ng·h/mL
CC(=O)NC[C@H]1CN(c2ccc(N3CCC(C(C)C#N)CC3)c(F)c2)C(=O)O1 (stereo partly drawn) [Compound 14, (S)-N-{3-[4-(4-(1-cyanoethyl)-piperidin-1-yl)-3-fluoro-phenyl]-2-oxo-oxazolidin-5-ylmethyl}-acetamide]	147 to 148 °C	2 µg/mL (≈ 5.15 µM)	2 µg/mL (≈ 5.15 µM)	2 µg/mL (≈ 5.15 µM)	
CC(=O)NC[C@H]1CN(c2ccc(N3CCC(C(C#N)CO)CC3)c(F)c2)C(=O)O1 (stereo partly drawn) [Compound 17, (S)-N-{3-[4-(4-(1-cyano-2-hydroxyethyl)-piperidin-1-yl)-3-fluoro-phenyl]-2-oxo-oxazolidin-5-ylmethyl}-acetamide]	182 to 184 °C	2 µg/mL (≈ 4.95 µM)	2 µg/mL (≈ 4.95 µM)	2 µg/mL (≈ 4.95 µM)	ED50 (MRSA 32): 20 mg/kg
CC(C)COC(=O)NC[C@H]1CN(c2ccc(N3CCC(CC#N)CC3)c(F)c2)C(=O)O1 [Compound 10, (S)-N-{3-[4-(4-cyanomethyl-piperidin-1-yl)-3-fluoro-phenyl]-2-oxo-oxazolidin-5-ylmethyl}-isobutylcarbamate]					Minimum Inhibitory Concentrations (MIC) MRSA-32 [4]: >16.0 µg/mL
N#CCC1CCN(c2ccc(N3C[C@H](CNC(=O)C(F)(F)F)OC3=O)cc2F)CC1 [Compound 8, (S)-N-{3-[4-(4-cyanomethyl-piperidin-1-yl)-3-fluoro-phenyl]-2-oxo-oxazolidin-5-ylmethyl}-trifluoroacetamide]		8 µg/mL (≈ 18.7 µM)	4 µg/mL (≈ 9.34 µM)	2 µg/mL (≈ 4.67 µM)	
CC(=O)NC[C@H]1CN(c2ccc(N3CCC(=O)CC3)c(F)c2)C(=O)O1 [U.S. Pat. No. 5,668,286 (No. 7), (S)-N-{3-[3-fluoro-4-(4-oxo-piperidin-1-yl)-phenyl]-2-oxo-oxazolidin-5-ylmethyl}-acetamide]					concentration at 12 hr [1]: 0 ng/mL; concentration at 12 hr [2]: 0 ng/mL
CC(=O)NC[C@H]1CN(c2ccc(N3CCC4(CC3)OCCO4)c(F)c2)C(=O)O1 [U.S. Pat. No. 5,668,286 (No. 30), (S)-N-{3-[4-(1,4-dioxa-8-aza-spiro[4.5]dec-8-yl)-3-fluoro-phenyl]-2-oxo-oxazolidin-5-ylmethyl}-acetamide]					half-life [1]: 6.68 h; AUC(0-t) [1]: 47200 ng·h/mL; Cmax [1]: 5310 ng/mL; concentration at 12 hr [1]: 1840 ng/mL; Cmax [2]: 7640 ng/mL; concentration at 12 hr [2]: 1190 ng/mL; half-life [2]: 6.71 h; AUC(0-t) [2]: 45100 ng·h/mL
